Measurements published in US20260098008A1, “COVALENT, CHEMOGENETIC ACTIVATORS FOR K2P POTASSIUM CHANNELS AND USES THEREOF” (THE REGENTS OF THE UNIVERSITY OF CALIFORNIA, priority 2022, published 2026).

Experiments:
Test in all cases: TEVC in Xenopus oocytes
Assay type in all cases: cell-based
[1] = biological target: T1, K2P10.1 (TREK-2)^CG* (Mus musculus, UniProt Q8BUW1, S153C); details: 20 μM, Xenopus oocytes
T1 construct: Modified TREK-2 from Mus musculus; expressed in transfected cells; host or cells: Xenopus laevis oocytes injected with mRNA
T1 sequence (Q8BUW1 with tags, fused parts or gaps S153C): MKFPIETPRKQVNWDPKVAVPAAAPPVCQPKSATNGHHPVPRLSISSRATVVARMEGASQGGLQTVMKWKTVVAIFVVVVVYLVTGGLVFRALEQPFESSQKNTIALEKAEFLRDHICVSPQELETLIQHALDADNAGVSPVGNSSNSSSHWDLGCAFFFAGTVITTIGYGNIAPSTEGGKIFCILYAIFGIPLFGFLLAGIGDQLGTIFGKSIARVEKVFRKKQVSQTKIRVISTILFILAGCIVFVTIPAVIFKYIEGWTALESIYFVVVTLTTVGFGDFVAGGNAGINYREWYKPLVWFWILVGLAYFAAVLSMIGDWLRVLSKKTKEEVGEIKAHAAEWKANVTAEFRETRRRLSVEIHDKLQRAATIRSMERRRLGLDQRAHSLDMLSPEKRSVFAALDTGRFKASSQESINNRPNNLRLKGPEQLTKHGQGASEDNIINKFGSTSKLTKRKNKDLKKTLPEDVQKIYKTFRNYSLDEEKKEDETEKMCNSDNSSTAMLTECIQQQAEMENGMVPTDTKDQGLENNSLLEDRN

[2] = biological target: T2, K2P18.1 (TRESK)^CG* (Mus musculus, UniProt Q6VV64, S116C); details: 20 μM
T2 construct: expressed in transfected cells; host or cells: Xenopus laevis oocytes injected with mRNA
T2 sequence (Q6VV64 1-394 S116C): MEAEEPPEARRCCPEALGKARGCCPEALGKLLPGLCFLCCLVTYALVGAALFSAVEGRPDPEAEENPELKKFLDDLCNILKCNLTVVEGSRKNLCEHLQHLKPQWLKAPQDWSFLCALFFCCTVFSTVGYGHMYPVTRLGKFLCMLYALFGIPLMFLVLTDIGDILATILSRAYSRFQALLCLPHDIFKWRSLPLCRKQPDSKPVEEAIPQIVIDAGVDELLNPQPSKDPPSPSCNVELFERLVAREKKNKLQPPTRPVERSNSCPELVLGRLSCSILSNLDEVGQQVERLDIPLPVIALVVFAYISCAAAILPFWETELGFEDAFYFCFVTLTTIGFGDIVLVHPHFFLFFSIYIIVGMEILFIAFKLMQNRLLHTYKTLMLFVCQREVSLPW

[3] = biological target: T3, K2P2.1 (TREK-1) S131A (Mus musculus, UniProt P97438, S146A); details: 20 μM, 0 mV
T3 construct: expressed in transfected cells; host or cells: Xenopus laevis oocytes injected with mRNA
T3 sequence (P97438 1-411 isoform P97438-2 S131A): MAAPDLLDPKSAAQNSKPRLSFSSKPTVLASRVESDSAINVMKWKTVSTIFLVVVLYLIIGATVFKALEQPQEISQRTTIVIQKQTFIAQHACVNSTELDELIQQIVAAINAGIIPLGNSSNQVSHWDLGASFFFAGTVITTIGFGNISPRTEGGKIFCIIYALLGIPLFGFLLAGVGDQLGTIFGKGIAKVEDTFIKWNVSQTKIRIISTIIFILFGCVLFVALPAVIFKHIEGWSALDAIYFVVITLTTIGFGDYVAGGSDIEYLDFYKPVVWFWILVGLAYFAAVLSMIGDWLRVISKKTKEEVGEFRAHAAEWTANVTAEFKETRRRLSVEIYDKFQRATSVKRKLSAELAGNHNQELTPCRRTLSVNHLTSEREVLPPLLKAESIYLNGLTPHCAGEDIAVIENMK

Fold-activation (I activator/I control) ([1]; 0 mV) [fold] | Reversibility of activation [1] | Activation of channel [2] | Fold-activation (I activator/I control) [3] [fold] | Compound
18±2 | irreversibly activated | not activated | – | O=C(NCc1ccc(Cl)cc1Cl)c1ccc(N2C(=O)C=CC2=O)cc1 [CAT335]
– | – | – | 6.8 | CS(=O)(=O)Nc1ccc(C(=O)NCc2ccc(Cl)cc2Cl)cc1 [ML335, reference compound]
